Where “and” joins values, the source holds several entries; their conditions need not be identical. Identical values can stand only once. Toxic doses and inconclusive results are not listed.
Test system: P388 leukemia ip, CD2F1 mice, survival T/C
Experiment: NCI In Vivo Anticancer Drug Screen. Data for tumor model P388 Leukemia (intraperitoneal) in CD2F1 (CDF1) mice
Conditions: endpoint: median survival time, higher = longer survival
Summary of the method: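 Mice carrying the transplanted tumor received test compound or vehicle. Survival was recorded in each group, and the value is the treated-group measurement divided by that of the vehicle-treated control group.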

[1] = dose: 60.0 mg/kg/injection, schedule: Q01DX005 (ip), vehicle: saline with Tween-80
[2] = dose: 120.0 mg/kg/injection, schedule: Q01DX005 (ip), vehicle: saline with Tween-80
[3] = dose: 240.0 mg/kg/injection, schedule: Q01DX005 (ip), vehicle: saline with Tween-80
[4] = dose: 50.0 mg/kg/injection, schedule: Q01DX005 (ip), vehicle: Klucel (hydroxypropylcellulose) (HPC)
[5] = dose: 100.0 mg/kg/injection, schedule: Q01DX005 (ip), vehicle: Klucel (hydroxypropylcellulose) (HPC)
[6] = dose: 200.0 mg/kg/injection, schedule: Q01DX005 (ip), vehicle: Klucel (hydroxypropylcellulose) (HPC)

SMILES: C/C(=N\NC(=S)N1CCCCCC1)c1ccccn1
- T/C (dose: 0.78 mg/kg/injection, schedule: Q01DX009 (ip), vehicle: saline with Tween-80): 99 % of control and 96 % of control
- T/C (dose: 1.56 mg/kg/injection, schedule: Q01DX009 (ip), vehicle: saline with Tween-80): 99 % of control and 103 % of control
- T/C (dose: 3.12 mg/kg/injection, schedule: Q01DX009 (ip), vehicle: saline with Tween-80): 90 % of control
- T/C (dose: 3.13 mg/kg/injection, schedule: Q01DX009 (ip), vehicle: saline with Tween-80): 121 % of control and 95 % of control
- T/C (dose: 6.25 mg/kg/injection, schedule: Q01DX009 (ip), vehicle: saline with Tween-80): 100 % of control and 112 % of control and 117 % of control
- T/C (dose: 12.5 mg/kg/injection, schedule: Q01DX009 (ip), vehicle: saline with Tween-80): 103 % of control

SMILES: CCOC(=O)c1cn(CC)c2cc(-n3cccc3)c(F)cc2c1=O
- T/C [1]: 98 % of control
- T/C [2]: 97 % of control
- T/C [3]: 94 % of control

SMILES: O=S(=O)(O)CCc1nn[nH]n1
- T/C (dose: 100.0 mg/kg/injection, schedule: Q01DX001 (ip), vehicle: saline): 100 % of control
- T/C (dose: 200.0 mg/kg/injection, schedule: Q01DX001 (ip), vehicle: saline): 101 % of control
- T/C (dose: 400.0 mg/kg/injection, schedule: Q01DX001 (ip), vehicle: saline): 101 % of control

SMILES: O=C(c1cc(-c2ccccc2)nc2ccccc12)n1c(=O)oc(=O)c2cc([N+](=O)[O-])ccc21
- T/C (dose: 50.0 mg/kg/injection, schedule: Q01DX005 (ip), vehicle: saline): 97 % of control
- T/C (dose: 100.0 mg/kg/injection, schedule: Q01DX005 (ip), vehicle: saline): 101 % of control
- T/C (dose: 200.0 mg/kg/injection, schedule: Q01DX005 (ip), vehicle: saline): 99 % of control

SMILES: CC1=C(C(=O)CC(=O)C(=O)Nc2ccc(C)cc2C)Sc2ccccc2N1
- T/C [1]: 104 % of control
- T/C [2]: 101 % of control
- T/C [3]: 94 % of control

SMILES: S=C1Cc2[nH]c(=S)sc(=S)c2C(=S)N1
- T/C (dose: 100.0 mg/kg/injection, schedule: Q01DX009 (ip), vehicle: saline with Tween-80): 87 % of control

SMILES: ClCCCN1CCN(CCCCl)CC1
- T/C (dose: 12.5 mg/kg/injection, schedule: Q01DX009 (ip), vehicle: distilled water + alcohol): 113 % of control
- T/C (dose: 25.0 mg/kg/injection, schedule: Q01DX009 (ip), vehicle: distilled water + alcohol): 121 % of control
- T/C (dose: 100.0 mg/kg/injection, schedule: Q01DX009 (ip), vehicle: distilled water + alcohol): 157 % of control and 190 % of control

SMILES: CC1CN1P(=O)(N1CCCC1)N1CC1C (centres undefined)
- T/C (dose: 4.4 mg/kg/injection, schedule: Q01DX009 (ip), vehicle: saline): 109 % of control
- T/C (dose: 6.6 mg/kg/injection, schedule: Q01DX009 (ip), vehicle: saline): 120 % of control
- T/C (dose: 12.5 mg/kg/injection, schedule: Q04DX003 (ip), vehicle: saline): 100 % of control
- T/C (dose: 25.0 mg/kg/injection, schedule: Q01DX009 (ip), vehicle: saline): 150 % of control
- T/C (dose: 25.0 mg/kg/injection, schedule: Q04DX003 (ip), vehicle: saline): 108 % of control
- T/C (dose: 66.0 mg/kg/injection, schedule: Q04DX003 (ip), vehicle: saline): 166 % of control
- T/C (dose: 100.0 mg/kg/injection, schedule: Q01DX009 (ip), vehicle: saline): 86 % of control
- T/C (dose: 100.0 mg/kg/injection, schedule: Q04DX003 (ip), vehicle: saline): 175 % of control

SMILES: [O-][n+]1cscc1-c1nc2ccccc2[nH]1
- T/C [4]: 100 % of control
- T/C [5]: 98 % of control
- T/C [6]: 102 % of control

SMILES: Cc1cccc(Nc2ncnc3nc[nH]c23)c1
- T/C [4]: 100 % of control
- T/C [5]: 91 % of control
- T/C [6]: 94 % of control

SMILES: CCCC1SCC(=O)N1c1nncs1 (centres undefined)
- T/C (dose: 30.0 mg/kg/injection, schedule: Q01DX005 (ip), vehicle: Klucel (hydroxypropylcellulose) (HPC)): 94 % of control
- T/C (dose: 60.0 mg/kg/injection, schedule: Q01DX005 (ip), vehicle: Klucel (hydroxypropylcellulose) (HPC)): 104 % of control and 111 % of control
- T/C (dose: 100.0 mg/kg/injection, schedule: Q01DX001 (ip), vehicle: Klucel (hydroxypropylcellulose) (HPC)): 96 % of control
- T/C (dose: 120.0 mg/kg/injection, schedule: Q01DX005 (ip), vehicle: Klucel (hydroxypropylcellulose) (HPC)): 120 % of control
- T/C (dose: 200.0 mg/kg/injection, schedule: Q01DX001 (ip), vehicle: Klucel (hydroxypropylcellulose) (HPC)): 103 % of control
- T/C (dose: 240.0 mg/kg/injection, schedule: Q01DX005 (ip), vehicle: Klucel (hydroxypropylcellulose) (HPC)): 166 % of control

SMILES: CN(C)c1cc(N(C)C)c2cc(Cl)ccc2n1
- T/C (dose: 50.0 mg/kg/injection, schedule: Q01DX009 (ip), vehicle: Klucel (hydroxypropylcellulose) (HPC)): 106 % of control
- T/C (dose: 100.0 mg/kg/injection, schedule: Q01DX009 (ip), vehicle: Klucel (hydroxypropylcellulose) (HPC)): 100 % of control

SMILES: Cc1cc(N2C(=O)CSC2=S)c([N+](=O)[O-])cc1C
- T/C (dose: 50.0 mg/kg/injection, schedule: Q01DX009 (ip), vehicle: suspension in saline): 91 % of control
- T/C (dose: 100.0 mg/kg/injection, schedule: Q01DX009 (ip), vehicle: suspension in saline): 89 % of control

SMILES: COc1cc2c(cc1C(CC(=O)O)c1ccc3c(c1)OCO3)OCO2 (centres undefined)
- T/C (dose: 50.0 mg/kg/injection, schedule: Q01DX005 (ip), vehicle: saline with Tween-80): 103 % of control
- T/C (dose: 100.0 mg/kg/injection, schedule: Q01DX005 (ip), vehicle: saline with Tween-80): 105 % of control
- T/C (dose: 200.0 mg/kg/injection, schedule: Q01DX005 (ip), vehicle: saline with Tween-80): 103 % of control

Source: PubChem BioAssay AID330 (DTP/NCI, 2004)
